Source: US8691865B2 (AbbVie Inc., priority 2008, dated 2014)

molecular target: human Cav2.2 (Homo sapiens, UniProt Q00975); experiment: Assessment of calcium channel activity using FLIPR (Ca2+ influx in IMR32 cells); format: cell-based; conditions: not given
Procedure, shortened: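 IC50 values derive from nonlinear sigmoidal fitting of percent inhibition, relative to inhibitor-free activity, of Ca2+ influx read by FLIPR. Cells were IMR32 human neuroblastoma, plated at 1−1.2×10^5 per well and grown 48 h at 37 °C.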

Sequence of human Cav2.2 (Q00975 whole entry): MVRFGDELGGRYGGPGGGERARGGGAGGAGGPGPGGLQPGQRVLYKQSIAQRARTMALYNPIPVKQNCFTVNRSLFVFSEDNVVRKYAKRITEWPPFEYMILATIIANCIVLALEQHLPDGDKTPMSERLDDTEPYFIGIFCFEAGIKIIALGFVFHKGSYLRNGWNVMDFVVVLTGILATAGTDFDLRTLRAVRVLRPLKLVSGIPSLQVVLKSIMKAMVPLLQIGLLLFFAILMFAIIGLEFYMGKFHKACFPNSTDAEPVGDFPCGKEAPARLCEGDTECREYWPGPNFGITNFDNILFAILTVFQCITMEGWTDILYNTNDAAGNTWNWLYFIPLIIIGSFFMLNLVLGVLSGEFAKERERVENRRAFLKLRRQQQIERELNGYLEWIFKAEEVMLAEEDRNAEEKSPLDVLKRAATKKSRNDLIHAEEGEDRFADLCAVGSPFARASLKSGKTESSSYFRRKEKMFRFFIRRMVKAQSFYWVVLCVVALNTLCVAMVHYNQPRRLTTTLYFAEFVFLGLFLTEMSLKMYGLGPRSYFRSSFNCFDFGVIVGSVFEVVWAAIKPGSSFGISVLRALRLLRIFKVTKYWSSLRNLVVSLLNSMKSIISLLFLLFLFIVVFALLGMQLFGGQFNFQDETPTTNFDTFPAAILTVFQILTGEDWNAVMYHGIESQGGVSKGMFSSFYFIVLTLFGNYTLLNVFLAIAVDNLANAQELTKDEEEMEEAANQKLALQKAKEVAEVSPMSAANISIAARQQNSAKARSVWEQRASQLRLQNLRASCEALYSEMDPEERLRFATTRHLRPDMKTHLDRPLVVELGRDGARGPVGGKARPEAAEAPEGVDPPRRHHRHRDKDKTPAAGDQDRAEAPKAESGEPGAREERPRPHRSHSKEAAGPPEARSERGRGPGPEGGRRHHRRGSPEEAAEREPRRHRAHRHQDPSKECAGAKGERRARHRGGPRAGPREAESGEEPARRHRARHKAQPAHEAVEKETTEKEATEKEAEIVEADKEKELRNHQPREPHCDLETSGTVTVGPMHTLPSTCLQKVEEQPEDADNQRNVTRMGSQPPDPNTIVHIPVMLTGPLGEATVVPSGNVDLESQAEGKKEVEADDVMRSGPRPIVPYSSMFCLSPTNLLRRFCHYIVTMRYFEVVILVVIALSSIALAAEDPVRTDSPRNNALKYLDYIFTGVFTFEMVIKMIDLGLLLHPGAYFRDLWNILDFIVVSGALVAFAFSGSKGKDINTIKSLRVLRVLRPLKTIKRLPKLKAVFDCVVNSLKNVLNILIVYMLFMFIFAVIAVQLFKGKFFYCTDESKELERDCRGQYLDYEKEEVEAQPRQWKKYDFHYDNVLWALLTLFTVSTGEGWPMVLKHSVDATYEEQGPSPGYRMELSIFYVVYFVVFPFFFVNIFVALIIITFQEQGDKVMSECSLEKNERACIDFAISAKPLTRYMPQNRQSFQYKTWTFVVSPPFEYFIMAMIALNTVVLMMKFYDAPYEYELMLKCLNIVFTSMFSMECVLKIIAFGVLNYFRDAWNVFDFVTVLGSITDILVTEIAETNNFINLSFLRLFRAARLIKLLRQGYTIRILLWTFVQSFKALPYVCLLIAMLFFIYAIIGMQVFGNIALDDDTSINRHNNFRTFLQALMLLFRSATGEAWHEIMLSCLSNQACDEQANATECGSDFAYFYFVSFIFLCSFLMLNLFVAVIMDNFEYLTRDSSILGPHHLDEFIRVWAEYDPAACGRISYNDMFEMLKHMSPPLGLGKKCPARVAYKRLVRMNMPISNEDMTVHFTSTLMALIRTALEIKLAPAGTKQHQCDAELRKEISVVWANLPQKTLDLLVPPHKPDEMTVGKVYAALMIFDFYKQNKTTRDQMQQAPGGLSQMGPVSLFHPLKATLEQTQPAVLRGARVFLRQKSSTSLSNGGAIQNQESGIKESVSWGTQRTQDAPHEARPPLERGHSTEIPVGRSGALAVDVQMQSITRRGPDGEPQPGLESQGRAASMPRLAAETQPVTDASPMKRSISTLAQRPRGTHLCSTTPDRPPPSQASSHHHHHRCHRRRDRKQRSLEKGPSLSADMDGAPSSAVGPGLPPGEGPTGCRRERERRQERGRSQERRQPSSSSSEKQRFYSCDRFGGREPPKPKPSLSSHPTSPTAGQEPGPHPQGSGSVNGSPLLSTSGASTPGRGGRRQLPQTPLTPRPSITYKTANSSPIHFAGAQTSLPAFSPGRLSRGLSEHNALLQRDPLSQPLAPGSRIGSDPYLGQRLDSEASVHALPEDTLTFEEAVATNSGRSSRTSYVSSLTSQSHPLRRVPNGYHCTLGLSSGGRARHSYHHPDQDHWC
Sequence of human Cav2.2 (P54289 25-956 partner limits assumed): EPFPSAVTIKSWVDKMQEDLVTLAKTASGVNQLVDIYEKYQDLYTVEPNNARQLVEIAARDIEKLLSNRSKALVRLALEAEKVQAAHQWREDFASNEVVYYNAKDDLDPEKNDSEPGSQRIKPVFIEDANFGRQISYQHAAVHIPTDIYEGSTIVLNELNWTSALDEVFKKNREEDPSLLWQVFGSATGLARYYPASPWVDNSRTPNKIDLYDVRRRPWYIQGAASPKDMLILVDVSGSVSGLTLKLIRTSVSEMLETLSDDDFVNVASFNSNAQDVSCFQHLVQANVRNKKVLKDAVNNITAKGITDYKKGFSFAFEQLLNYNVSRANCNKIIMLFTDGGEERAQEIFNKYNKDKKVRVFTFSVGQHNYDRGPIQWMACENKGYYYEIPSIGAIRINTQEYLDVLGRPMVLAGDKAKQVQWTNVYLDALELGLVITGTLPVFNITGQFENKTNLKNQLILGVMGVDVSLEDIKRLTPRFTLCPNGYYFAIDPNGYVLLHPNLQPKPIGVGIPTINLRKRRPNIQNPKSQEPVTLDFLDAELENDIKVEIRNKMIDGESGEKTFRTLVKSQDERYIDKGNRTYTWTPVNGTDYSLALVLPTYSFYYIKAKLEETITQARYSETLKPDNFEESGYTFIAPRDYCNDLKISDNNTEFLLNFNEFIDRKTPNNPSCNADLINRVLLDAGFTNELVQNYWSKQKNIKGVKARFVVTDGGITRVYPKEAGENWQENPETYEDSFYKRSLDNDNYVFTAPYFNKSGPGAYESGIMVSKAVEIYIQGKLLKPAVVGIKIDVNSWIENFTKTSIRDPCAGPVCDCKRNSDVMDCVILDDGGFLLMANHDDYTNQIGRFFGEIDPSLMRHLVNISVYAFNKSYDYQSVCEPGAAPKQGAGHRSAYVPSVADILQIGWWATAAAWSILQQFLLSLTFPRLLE
Sequence of human Cav2.2 (P54289 957-1103 partner limits assumed): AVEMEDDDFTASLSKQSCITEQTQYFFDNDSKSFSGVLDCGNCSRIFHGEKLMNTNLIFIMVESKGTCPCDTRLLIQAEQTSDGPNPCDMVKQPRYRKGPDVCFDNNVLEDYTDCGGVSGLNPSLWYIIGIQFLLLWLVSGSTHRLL
Sequence of human Cav2.2 (P54284 whole entry partner): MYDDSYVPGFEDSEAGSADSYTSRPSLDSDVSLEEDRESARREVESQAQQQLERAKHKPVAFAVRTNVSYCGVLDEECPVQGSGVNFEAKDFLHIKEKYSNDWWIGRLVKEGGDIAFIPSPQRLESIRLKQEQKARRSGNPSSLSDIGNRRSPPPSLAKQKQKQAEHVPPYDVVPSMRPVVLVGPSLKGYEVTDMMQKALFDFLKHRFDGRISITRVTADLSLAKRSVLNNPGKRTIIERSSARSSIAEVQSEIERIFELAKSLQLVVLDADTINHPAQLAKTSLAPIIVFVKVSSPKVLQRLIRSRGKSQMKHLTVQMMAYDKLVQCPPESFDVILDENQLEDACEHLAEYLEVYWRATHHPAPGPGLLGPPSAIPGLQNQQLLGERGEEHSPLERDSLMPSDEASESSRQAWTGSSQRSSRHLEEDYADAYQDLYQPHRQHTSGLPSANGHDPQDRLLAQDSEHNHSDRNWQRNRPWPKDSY

SMILES	IC50 [µM]
CC(C)(C)C[C@H](N)C(=O)N[C@H]1CC[C@@H]2CN(C(=O)[C@@H](N)CC(C)(C)C)C[C@@H]21 [Example 464, 4-methyl-N^1-[(3aR,4S,6aS)-2-(4-methyl-L-leucyl)octahydrocyclopenta[c]pyrrol-4-yl]-L-leucinamide]	> 30
O=C(CCC(F)(F)F)N[C@H]1CC[C@@H]2CN(c3cccc(C(F)(F)F)n3)C[C@@H]21 [Example 582, 4,4,4-trifluoro-N-{(3aR,4S,6aS)-2-[6-(trifluoromethyl)pyridin-2-yl]octahydrocyclopenta[c]pyrrol-4-yl}butanamide]	0.96
O=C(N[C@H]1CC[C@H]2CN(Cc3ccccc3)C[C@H]21)C(C1CCCCC1)C1CCCCC1 (relative stereo) [Example 11, N-[(3aS*,4S*,6aR*)-2-benzyloctahydrocyclopenta[c]pyrrol-4-yl]-2,2-dicyclohexylacetamide]	4.67
CCC[C@H](NC)C(=O)N[C@H]1CC[C@@H]2CN(S(=O)(=O)c3ccc(OC)c(OC)c3)C[C@@H]21 [Example 545, N^1-{(3aR,4S,6aS)-2-[(3,4-dimethoxyphenyl)sulfonyl]octahydrocyclopenta[c]pyrrol-4-yl}-N^2-methyl-L-norvalinamide]	> 30
CC(C)C(C(=O)N[C@H]1CC[C@@H]2CN(CCCc3ccccc3)C[C@@H]21)c1ccccc1 (stereo partly drawn) [Example 105, 3-methyl-2-phenyl-N-[(3aR,4S,6aS)-2-(3-phenylpropyl)octahydrocyclopenta[c]pyrrol-4-yl]butanamide]	1.21

The remaining lines, values ahead:

IC50 [µM]	SMILES
5.11	CC[C@H](NC(C)C)C(=O)N[C@H]1CC[C@@H]2CN(c3ccc(C(F)(F)F)cc3)C[C@@H]21 [Example 762, (2S)-2-(isopropylamino)-N-{(3aR,4S,6aS)-2-[4-(trifluoromethyl)phenyl]octahydrocyclopenta[c]pyrrol-4-yl}butanamide]
13.7	Fc1ccc2[nH]c(CN[C@H]3CC[C@@H]4CN(c5ccc(C(F)(F)F)cc5)C[C@@H]43)cc2c1 [Example 615, (3aR,4S,6aS)-N-[(5-fluoro-1H-indol-2-yl)methyl]-2-[4-(trifluoromethyl)phenyl]octahydrocyclopenta[c]pyrrol-4-amine]
> 30	CN[C@@H](CC(C)(C)C)C(=O)N[C@H]1CC[C@@H]2CN(Cc3ccccc3)C[C@@H]21 [Example 355, N^1-[(3aR,4S,6aS)-2-benzyloctahydrocyclopenta[c]pyrrol-4-yl]-N^2,4-dimethyl-L-leucinamide]
0.56	FC(F)(F)c1cccc(N2C[C@H]3CC[C@H](NCc4ccc5nsnc5c4)[C@H]3C2)n1 [Example 732, (3aR,4S,6aS)-N-(2,1,3-benzothiadiazol-5-ylmethyl)-2-[6-(trifluoromethyl)pyridin-2-yl]octahydrocyclopenta[c]pyrrol-4-amine]
0.57	O=S(=O)(N[C@@H]1CC[C@H]2CN(CCC(c3ccc(F)cc3)c3ccc(F)cc3)C[C@H]21)c1cccc(C(F)(F)F)c1 [Example 193, N-{(3aS,4R,6aR)-2-[3,3-bis(4-fluorophenyl)propyl]octahydrocyclopenta[c]pyrrol-4-yl}-3-(trifluoromethyl)benzenesulfonamide]
1.32	O=C(N[C@H]1CC[C@@H]2CN(c3cccc(C(F)(F)F)c3F)C[C@@H]21)[C@@H]1C[C@@H](F)CN1 [Example 623, (4R)-4-fluoro-N-{(3aR,4S,6aS)-2-[2-fluoro-3-(trifluoromethyl)phenyl]octahydrocyclopenta[c]pyrrol-4-yl}-L-prolinamide]
1.37	FC(F)(F)c1cccc(N2C[C@H]3CC[C@H](NCc4c[nH]nc4-c4ccc(Cl)cc4)[C@H]3C2)n1 [Example 666, (3aR,4S,6aS)-N-{[3-(4-chlorophenyl)-1H-pyrazol-4-yl]methyl}-2-[6-(trifluoromethyl)pyridin-2-yl]octahydrocyclopenta[c]pyrrol-4-amine]
20.5	O=C(N[C@H]1CC[C@@H]2CN(c3cc(C(F)(F)F)ccn3)C[C@@H]21)[C@@H]1C[C@@H](F)CN1 [Example 637, (4R)-4-fluoro-N-{(3aR,4S,6aS)-2-[4-(trifluoromethyl)pyridin-2-yl]octahydrocyclopenta[c]pyrrol-4-yl}-L-prolinamide]
11	CC(C)C(C(=O)N[C@@H]1CC[C@H]2CN(Cc3ccccc3)C[C@H]21)C(C)C [Example 235, N-[(3aS,4R,6aR)-2-benzyloctahydrocyclopenta[c]pyrrol-4-yl]-2-isopropyl-3-methylbutanamide]

same assay, conditions: read-out: IC50 (μM) or percent inhibition (* indicates 3 minute incubation, otherwise 60 minute); IC50; 60 minute pre-incubation with compound; IMR32 cells, 80 mM KCl depolarization

SMILES	IC50 [µM]
O=C(N[C@@H]1CC[C@H]2CN(Cc3ccccc3)C[C@H]21)C(c1ccccc1)C1CCCC1 (relative stereo) [Example 8, N-[(3aS*,4R*,6aR*)-2-benzyloctahydrocyclopenta[c]pyrrol-4-yl]-2-cyclopentyl-2-phenylacetamide]	1.07
O=C(N[C@H]1CC[C@H]2CN(CCCc3ccc(C(F)(F)F)cc3)C[C@H]21)C(C1CCCCC1)C1CCCCC1 [Example 70, 2,2-dicyclohexyl-N-((3aS,4S,6aR)-2-{3-[4-(trifluoromethyl)phenyl]propyl}octahydrocyclopenta[c]pyrrol-4-yl)acetamide]	1.93
CCC[C@H](NC)C(=O)N[C@@H]1CC[C@H]2CN(S(=O)(=O)c3ccc(F)cc3)C[C@H]21 [Example 403, N^1-{(3aS,4R,6aR)-2-[(4-fluorophenyl)sulfonyl]octahydrocyclopenta[c]pyrrol-4-yl}-N^2-methyl-L-norvalinamide]	8.65
FC(F)(F)c1cccc(CN2C[C@@H]3CC[C@H](N(C4CC4)C4CC4)[C@@H]3C2)c1 (relative stereo) [Example 196, (3aS*,4S*,6aR*)-N,N-dicyclopropyl-2-[3-(trifluoromethyl)benzyl]octahydrocyclopenta[c]pyrrol-4-amine]	3.18
CC(C)C[C@@H](NC(=O)OC(C)(C)C)C(=O)N[C@@H]1CC[C@H]2CN(Cc3cccc(C(F)(F)F)c3)C[C@H]21 (relative stereo) [Example 149, N^2-(tert-butyloxycarbonyl)-N^1-{(3aS*,4R*,6aR*)-2-[3-(trifluoromethyl)benzyl]octahydrocyclopenta[c]pyrrol-4-yl}-D-leucinamide]	0.62
CC(C)(C)C[C@H](N)C(=O)N[C@H]1CC[C@@H]2CN(Cc3ccccc3)C[C@@H]21 [Example 361, N^1-[(3aR,4S,6aS)-2-benzyloctahydrocyclopenta[c]pyrrol-4-yl]-4-methyl-L-leucinamide]	24.7
CC(C)C(C(=O)N[C@H]1CC[C@@H]2CN(Cc3ccccc3)C[C@@H]21)C(C)C [Example 229, N-[(3aR,4S,6aS)-2-benzyloctahydrocyclopenta[c]pyrrol-4-yl]-2-isopropyl-3-methylbutanamide]	13.4

The remaining lines, values ahead:

IC50 [µM]	SMILES
1.24	O=S(=O)(N[C@H]1CC[C@H]2CN(Cc3cccc(C(F)(F)F)c3)C[C@H]21)c1cccc(C(F)(F)F)c1 [Example 187, 3-(trifluoromethyl)-N-{(3aS,4S,6aR)-2-[3-(trifluoromethyl)benzyl]octahydrocyclopenta[c]pyrrol-4-yl}benzenesulfonamide]
10.6	CCC[C@H](NC)C(=O)N[C@H]1CC[C@@H]2CN(Cc3cccc(C(F)(F)F)c3)C[C@@H]21 [Example 376, N^2-methyl-N^1-{(3aR,4S,6aS)-2-[3-(trifluoromethyl)benzyl]octahydrocyclopenta[c]pyrrol-4-yl}-L-norvalinamide]
